Legend:
[1] = target: T1, human TLR7 (Homo sapiens, UniProt Q9NYK1); assay: TLR7 inhibition reporter assay (HEK-Blue SEAP reporter); assay type: cell-based; settings: HEK-Blue cells overexpressing human TLR7; gardiquimod 7.5 μM; 22 hour incubation
T1 construct: host or cells: HEK-Blue cells
T1 sequence (Q9NYK1 27-1049): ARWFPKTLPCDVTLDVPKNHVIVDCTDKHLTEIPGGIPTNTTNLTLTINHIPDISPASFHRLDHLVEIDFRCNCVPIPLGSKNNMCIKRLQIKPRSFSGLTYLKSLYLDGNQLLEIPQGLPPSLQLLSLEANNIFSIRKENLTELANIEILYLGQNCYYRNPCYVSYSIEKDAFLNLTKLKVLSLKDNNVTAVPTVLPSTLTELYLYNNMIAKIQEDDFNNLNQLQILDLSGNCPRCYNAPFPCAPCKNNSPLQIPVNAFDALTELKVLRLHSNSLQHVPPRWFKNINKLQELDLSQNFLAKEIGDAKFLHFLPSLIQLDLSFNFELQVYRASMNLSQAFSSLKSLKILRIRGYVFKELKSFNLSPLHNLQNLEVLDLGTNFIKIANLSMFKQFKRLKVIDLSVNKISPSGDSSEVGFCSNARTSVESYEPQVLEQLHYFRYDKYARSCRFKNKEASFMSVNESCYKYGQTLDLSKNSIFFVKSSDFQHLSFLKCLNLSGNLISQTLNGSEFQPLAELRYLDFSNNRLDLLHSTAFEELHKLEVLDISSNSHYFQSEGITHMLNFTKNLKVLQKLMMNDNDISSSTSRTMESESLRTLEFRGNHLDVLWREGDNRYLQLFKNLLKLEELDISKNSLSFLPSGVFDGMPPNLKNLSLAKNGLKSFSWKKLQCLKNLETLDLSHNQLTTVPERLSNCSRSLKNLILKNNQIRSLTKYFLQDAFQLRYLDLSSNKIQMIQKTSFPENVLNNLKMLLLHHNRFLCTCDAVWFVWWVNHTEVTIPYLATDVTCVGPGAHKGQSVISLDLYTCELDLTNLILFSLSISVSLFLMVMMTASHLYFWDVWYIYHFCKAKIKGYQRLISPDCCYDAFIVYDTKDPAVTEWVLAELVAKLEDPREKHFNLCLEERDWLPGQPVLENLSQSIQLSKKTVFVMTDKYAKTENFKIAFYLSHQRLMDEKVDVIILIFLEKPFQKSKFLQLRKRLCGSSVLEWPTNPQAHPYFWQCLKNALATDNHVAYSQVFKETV
Description: (§1) TLR7/8/9 Inhibition Reporter Assays
(§2) HEK-Blue™-cells (Invivogen) overexpressing human TLR7, TLR8 or TLR9 receptors were used for screening inhibitors of these receptors using an inducible SEAP (secreted embryonic alkaline phosphatase) reporter gene under the control of the IFN-β minimal promoter fused to five NF-κB and AP-1-binding sites. Briefly, cells are seeded into Greiner 384 well plates (15000 cells per well for TLR7, 20,000 for TLR8 and 25,000 for TLR9) and then treated with test compounds in DMSO to yield a final dose response concentration range of 0.05 nM-50 μM. After a 30 minute compound pre-treatment at room temperature, the cells are then stimulated with a TLR7 ligand (gardiquimod at a final concentration of 7.5 μM), TLR8 ligand (R848 at a final concentration of 15.9 μM) or TLR9 ligand (ODN2006 at a final concentration of 5 nM) to activate NF-κB and AP-1 which induce the production of SEAP. After a 22 hour incubation at 37° C., 5% CO2, SEAP levels are determined with the addition of HEK-Blue™ Detection reagent (Invivogen), a cell culture medium that allows for detection of SEAP, according to manufacturer's specifications. The percent inhibition is determined as the % reduction in the HEK-Blue signal present in wells treated with agonist plus DMSO alone compared to wells treated with a known inhibitor.

[2] = target: T2, human TLR9 (Homo sapiens, UniProt Q9NR96); assay: TLR9 inhibition reporter assay (HEK-Blue SEAP reporter); assay type: cell-based; settings: HEK-Blue cells overexpressing human TLR9; ODN2006 5 nM; 22 hour incubation
T2 construct: host or cells: HEK-Blue cells
T2 sequence (Q9NR96 26-1032): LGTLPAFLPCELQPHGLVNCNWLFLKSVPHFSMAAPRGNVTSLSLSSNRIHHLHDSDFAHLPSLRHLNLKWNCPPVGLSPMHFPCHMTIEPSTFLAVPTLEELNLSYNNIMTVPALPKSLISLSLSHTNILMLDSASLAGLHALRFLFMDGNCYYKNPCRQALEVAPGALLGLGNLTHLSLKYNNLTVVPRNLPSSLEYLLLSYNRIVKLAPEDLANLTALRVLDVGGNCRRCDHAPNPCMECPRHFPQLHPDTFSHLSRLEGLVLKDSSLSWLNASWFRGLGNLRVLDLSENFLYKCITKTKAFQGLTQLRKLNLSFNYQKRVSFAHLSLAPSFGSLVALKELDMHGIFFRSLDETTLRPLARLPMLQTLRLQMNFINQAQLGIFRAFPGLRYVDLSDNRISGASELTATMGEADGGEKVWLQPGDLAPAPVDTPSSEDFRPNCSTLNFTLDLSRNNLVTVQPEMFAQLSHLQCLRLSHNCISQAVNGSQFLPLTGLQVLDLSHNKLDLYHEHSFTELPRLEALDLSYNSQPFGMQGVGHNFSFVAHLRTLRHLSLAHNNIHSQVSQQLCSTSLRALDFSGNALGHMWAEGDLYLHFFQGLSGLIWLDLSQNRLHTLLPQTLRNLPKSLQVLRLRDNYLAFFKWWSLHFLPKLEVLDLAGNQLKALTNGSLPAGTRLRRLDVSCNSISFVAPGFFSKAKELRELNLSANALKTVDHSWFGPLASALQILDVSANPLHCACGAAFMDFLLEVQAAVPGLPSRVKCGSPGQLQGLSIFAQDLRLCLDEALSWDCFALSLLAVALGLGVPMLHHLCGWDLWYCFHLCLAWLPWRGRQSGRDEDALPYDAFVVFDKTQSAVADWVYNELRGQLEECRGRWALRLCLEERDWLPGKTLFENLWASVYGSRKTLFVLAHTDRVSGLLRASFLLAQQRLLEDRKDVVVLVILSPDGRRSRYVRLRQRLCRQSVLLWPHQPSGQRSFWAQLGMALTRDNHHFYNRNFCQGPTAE
Description: as §1, §2

| SMILES | IC50 [1] [µM] | IC50 [2] [µM] |
| --- | --- | --- |
| COc1ccc(-c2[nH]c3ccc(NC4CCC(N5CCN(CCN6CCCC6)CC5)CC4)cc3c2C(C)C)cc1OC (centres unmarked) [Example 64, 2-(3,4-dimethoxyphenyl)-3-isopropyl-N-(4-(4-(2-(pyrrolidin-1-yl)ethyl)piperazin-1-yl)cyclohexyl)-1H-indol-5-amine] | 0.357 | 0.555 |
| CCc1c(-c2ccc(OC)c(OC)c2)[nH]c2ccc(N3CCN(CCNC)CC3)cc12 [Example 140, 2-(4-(2-(3,4-dimethoxyphenyl)-3-ethyl-1H-indol-5-yl)piperazin-1-yl)-N-methylethan-1-amine] | 0.235 | 3.94 |
| CCc1c(-c2ccc(OC)c(OC)c2)[nH]c2ccc(N3CCC(OC4CCN(CC)CC4)CC3)cc12 [Example 188, 2-(3,4-dimethoxyphenyl)-3-ethyl-5-(4-((1-ethylpiperidin-4-yl)oxy)piperidin-1-yl)-1H-indole] | 0.161 | 0.986 |
| COc1ccc(-c2[nH]c3ccc(NC4CCC(NCCCN5CCOCC5)CC4)cc3c2C(C)C)cc1OC (centres unmarked) [Example 55, N1-(2-(3,4-dimethoxyphenyl)-3-isopropyl-1H-indol-5-yl)-N4-(3-morpholinopropyl)cyclohexane-1,4-diamine] | 0.167 | 0.631 |
| COc1ccc(-c2[nH]c3ccc(NC4CCC(N(C)CCCN(C)C)CC4)cc3c2C(C)C)cc1OC (centres unmarked) [Example 42, N1-(2-(3,4-dimethoxyphenyl)-3-isopropyl-1H-indol-5-yl)-N4-(3-(dimethylamino)propyl)-N4-methylcyclohexane-1,4-diamine] | 0.106 | 1.01 |
| CNCCNC1CCC(Nc2ccc3[nH]c(-c4ccc(OC)c(OC)c4)c(C(C)C)c3c2)CC1 (single isomer, unassigned) [Example 31, N1-(2-(3,4-dimethoxyphenyl)-3-isopropyl-1H-indol-5-yl)-N4-(2-(methylamino)ethyl)cyclohexane-1,4-diamine] | 1.13 | 1.44 |
| COc1ccc(-c2[nH]c3ccc(NC4CCC(NCCCN5CCOCC5)CC4)cc3c2C(C)C)cc1OC (centres unmarked) [Example 56, N1-(2-(3,4-dimethoxyphenyl)-3-isopropyl-1H-indol-5-yl)-N4-(3-morpholinopropyl)cyclohexane-1,4-diamine] | 0.136 | 0.59 |
| COCCN1CCN(C2CCC(Nc3ccc4[nH]c(-c5ccc(OC)c(OC)c5)c(C(C)C)c4c3)CC2)CC1 (centres unmarked) [Example 54, 2-(3,4-dimethoxyphenyl)-3-isopropyl-N-(4-(4-(2-methoxyethyl)piperazin-1-yl)cyclohexyl)-1H-indol-5-amine] | 0.269 | 0.97 |
| COc1ccc(-c2[nH]c3ccc(NC4CCC(N5CCN(CC(C)C)CC5)CC4)cc3c2C(C)C)cc1OC (centres unmarked) [Example 53, 2-(3,4-dimethoxyphenyl)-N-(4-(4-isobutylpiperazin-1-yl)cyclohexyl)-3-isopropyl-1H-indol-5-amine] | 0.659 | 1.21 |
| COc1ccc(-c2[nH]c3ccc(NC4CCC(N5CCN(C(C)(C)C)CC5)CC4)cc3c2C(C)C)cc1OC (centres unmarked) [Example 50, N-(4-(4-(tert-butyl)piperazin-1-yl)cyclohexyl)-2-(3,4-dimethoxyphenyl)-3-isopropyl-1H-indol-5-amine] | 0.431 | 0.561 |
| COc1ccc(-c2[nH]c3ccc(NC4CCC(N5CCN(C)CC5)CC4)cc3c2C(C)C)cc1OC (centres unmarked) [Example 34, 2-(3,4-dimethoxyphenyl)-3-isopropyl-N-(4-(4-methylpiperazin-1-yl)cyclohexyl)-1H-indol-5-amine] | 0.281 | 0.769 |
| COc1ccc(-c2[nH]c3ccc(N4CCC(NCCN(C)C)CC4)cc3c2C(C)C)cc1OC [Example 75, N1-(1-(2-(3,4-dimethoxyphenyl)-3-isopropyl-1H-indol-5-yl)piperidin-4-yl)-N2,N2-dimethylethane-1,2-diamine] | 0.206 | 3.86 |
| COc1ccc(-c2[nH]c3ccc(NC4CCC(N(C)CCCN(C)C)CC4)cc3c2C(C)C)cc1OC (centres unmarked) [Example 43, N1-(2-(3,4-dimethoxyphenyl)-3-isopropyl-1H-indol-5-yl)-N4-(3-(dimethylamino)propyl)-N4-methylcyclohexane-1,4-diamine] | 0.252 | 0.477 |
| CCc1c(-c2ccc(OC)c(OC)c2)[nH]c2ccc(N(CC)C3CCN(C4CCN(C)CC4)CC3)cc12 [Example 28, 2-(3,4-dimethoxyphenyl)-N,3-diethyl-N-(1′-methyl-1,4′-bipiperidin-4-yl)-1H-indol-5-amine] | 2.22 | 0.627 |
| COc1ccc(-c2[nH]c3ccc(NC4CCC(N5CCN(CC(C)C)CC5)CC4)cc3c2C(C)C)cc1OC (centres unmarked) [Example 52, 2-(3,4-dimethoxyphenyl)-N-(4-(4-isobutylpiperazin-1-yl)cyclohexyl)-3-isopropyl-1H-indol-5-amine] | 0.403 | 1.58 |
| CCN1CCC(N2CCN(c3ccc4[nH]c(-c5ccnc6[nH]ccc56)c(C)c4c3)CC2)CC1 [Example 145, 4-(5-(4-(1-ethylpiperidin-4-yl)piperazin-1-yl)-3-methyl-1H-indol-2-yl)-1H-pyrrolo[2,3-b]pyridine] | 2.46 | 0.197 |
| COc1ccc(-c2[nH]c3ccc(NC4CCC(N5CCN(C(C)=O)CC5)CC4)cc3c2C(C)C)cc1OC (single isomer, unassigned) [Example 44, 1-(4-(4-((2-(3,4-dimethoxyphenyl)-3-isopropyl-1H-indol-5-yl)amino)cyclohexyl)piperazin-1-yl)ethan-1-one] | 0.375 | 4.07 |
| CCc1c(-c2ccnc(C)c2)[nH]c2ccc(N3CCN(C4CCN(CC(C)C)CC4)CC3)cc12 [Example 152, 3-ethyl-5-(4-(1-isobutylpiperidin-4-yl)piperazin-1-yl)-2-(2-methylpyridin-4-yl)-1H-indole] | 2.22 | 0.342 |
| COc1ccc(-c2[nH]c3ccc(NC4CCC(NC5CCN(C)CC5)CC4)cc3c2C(C)C)cc1OC (single isomer, unassigned) [Example 41, N1-(2-(3,4-dimethoxyphenyl)-3-isopropyl-1H-indol-5-yl)-N4-(1-methylpiperidin-4-yl)cyclohexane-1,4-diamine] | 0.221 | 0.991 |

From patent publication US11306092B2, “Amino indole compounds useful as TLR inhibitors” (BRISTOL-MYERS SQUIBB COMPANY, priority 2017, dated 2022)
